# Source: patent US12391643B2, “Substituted amino-thiol and amino-disulfide compounds, and uses thereof” (The Regents of the University of California, priority 2019, dated 2025)
# Where a name gives a salt, the structure may show the parent alone.
# Assays:
# [1] = system: Pooled human hepatocytes; assay: Hepatocyte elimination (in vitro metabolic stability, percent parent remaining by LC/MS/MS); assay type: in vitro ADME; conditions: for Rate of hepatocyte elimination / stability, comparison in words: compared with other forms
# Text: In vitro experiments with isotopically enriched cystamine and cysteamine in hepatocytes.
# The assessment of in vitro metabolic stability provides a means to measure the susceptibility of a test compound to biotransformation by the liver. While liver microsomes primarily assess cytochrome P450 system-mediated metabolism (phase I metabolism), hepatocytes represent a complete, undisrupted metabolic system, including cofactors, and thus assess both phase I and phase II metabolism. In all cases, the metabolic stability of test compounds was determined by monitoring, via LC/MS/MS, the percent parent compound remaining versus time of incubation in human hepatocytes.
# Pooled human hepatocytes (catalog number HMCS10, ThermoFischer Scientific) were thawed according to the manufacturers instructions. Thawed hepatocytes were washed by centrifugation and replated in Williams' Medium E supplemented with Heptocyte Plating Supplement Pack, Serum-containing.
# Cells were diluted to 1,000,000 per ml in maintenance media (Williams' E Media supplemented with Hepatocyte Maintenance Supplement Pack, Serum-free). 500 μl of cell suspension was added to each well of a microtiter plate containing 500 μl of the deuterated test agent and placed on an orbital shaker at 120 rpm at 37 C. At the appropriate time point 50 μl aliquots were removed from the well and added to 50 μl of ice cold ethyl acetate and vortexed for 5 min and froze until chromatography analysis.
# [2] = system: cystinotic fibroblasts; assay: Cystine depletion during constant drug exposure in cystinotic fibroblasts; assay type: cell-based, human; conditions: 100 uM constant exposure, 0-5 h, vs cystamine
# Protocol: (§1) In vitro experiments with isotopically enriched cystamine in cystinotic fibroblasts. Fibroblasts from a de-identified cystinotic patient were split 3× from 2 plates into 36 plates. Three different drugs were used for the experiments: cystamine (non-labeled), d2-cystamine, and d4-cystamine. There were two time series for each drug. The first was with constant drug incubation and included: 0, 10 min, 30 min, 1 h, 3 h, and 5 h. The other series included a washout after 3 h drug incubation, using fresh media following a PBS wash, and included the timepoints: 0, 30 min, 1 h, 3 h, 5 h, and 17 h. A direct quench and extraction technique were used for harvesting all cells to minimize further oxidation and metabolism. This included 2× washes with PBS that included 5 mM N-ethylmaleimide for trapping free thiol groups, and then scraping the plates with an acidified organic solvent extraction solution containing both d4-cystine and d4-cysteamine (plus d-8 cystamine) as internal standards. All samples were run on an API 4500 triple quadrupole LC-MS/MS, with selective reaction monitoring (SRM/MRM) for the following compounds of interest: cystine, NEM-cysteamine, NEM-cysteine, cystamine, and 2-(methylthio)ethylamine. All data fit well to single exponential curves (either decay or association), except where mentioned.
# Following incubation, cells were washed 2× in PBS containing N-ethylmaleimide.
# (§2) Fibroblasts from a de-identified cystinotic patient were split 3× from 2 plates into 18 plates. Two different drugs were used for the experiments: D4n-cystamine, and D8-cystamine. There were two time series for each drug. The first was with constant drug incubation and included: 0, 15 min, 30 min, 1 hr, and 3 hr. The other series included a washout after 3 hours of drug incubation, using fresh media following a PBS wash, and included the time-points: 0, 1 hr, 3 hr, and 16 hr. A direct quench and extraction technique was used for harvesting all cells to minimize further oxidation and metabolism. […] All samples were run on an API 4500 triple quadruple LC-MS/MS, with selective reaction monitoring (SRM/MRM) for the following compounds of interest: cystine, NEM-cysteamine, NEM-cysteine, and cystamine. All data fit well to single exponential curves (either decay or association), except where mentioned.
# [3] = system: cystinotic fibroblasts; assay: Cystine re-accumulation after washout in cystinotic fibroblasts; assay type: cell-based, human; conditions: for Cystine reaccumulation after washout, D4n vs D8: 50 μM for 3 hours, then media 1 h, 3 h, 16 h
# Protocol: as §1
# Cystine measurement after washout: Fibroblast cultures were exposed to 100 uM cystamine/d2-cystamine/d4-cystamine for 3 h. Following incubation, cells were washed with PBS, and then incubated with regular media (containing FBS) for the following timepoints: 0 min, 30 min, 1 h, 3 h, 5 h, and 17 h. Cells were harvested identically as described previously.
# as §2
# Fibroblast cultures were exposed to 50 μM cystamine (D8 or D4n) for 3 hours. Following incubation, cells were washed with PBS and then incubated with regular mediate containing FBS for 1 h, 3 h, and 16 h. Cells were harvested as above. […] Cystine reaccumulation between D4n-cystamine and D8-cystamine are very similar, indicating similar levels of drug remaining during the washout timepoints (FIG. 15).
# [4] = system: cystinotic fibroblasts; assay: Intracellular NEM-cysteamine, NEM-cysteine, cystamine and mixed disulfide levels in cystinotic fibroblasts; assay type: cell-based, human; conditions: washout period
# Protocol: as §1
# NEM-cysteamine and NEM-cysteine during constant incubation. Fibroblast cultures were exposed to drug (either cystamine, d2-cystamine, or d4-cystamine) and harvested as described on page 2 for the cystine depletion curve. NEM-cysteamine (or NEM-d1-cysteamine or NEM-d2-cysteamine) was measured for each respective plate and normalized against the signal for d4-cystine.
# NEM-cysteamine during washout. Fibroblast cultures were exposed to drug (either cystamine, d2-cystamine, or d4-cystamine) for 3 h were then exposed to media for various timepoints and harvested as previously described.
# NEM-cysteine during washout. Fibroblast cultures were exposed to drug (either cystamine, d2-cystamine, or d4-cystamine) for 3 h were then exposed to media for various timepoints and harvested as previously described.
# Cystamine during constant drug incubation. Fibroblast cultures were exposed to drug (either cystamine, d2-cystamine, or d4-cystamine) for various timepoints following harvesting as described earlier. Cystamine could be measured in the non-labeled cystamine incubation as well as the d4-cystamine incubation. d2-cystamine could not be accurately measured due to a strong background interference signal corresponding to that mass. No cystamine could be measured in the washout experiments.
# [5] = system: C57BL/6 male mice on CDAHFD diet; assay: In vivo NASH model, prevention phase (drug in drinking water, 8 weeks); conditions: about 200 mg/kg/day in drinking water, n=8 per group
# Protocol: (§3) In vivo NASH Models. NASH models from normal C57BL/6 male mice on CDAHFD diet (choline deficient, L-amino acid defined, high fat diet with restricted amount of methionine) were used. Two deuterated cystamine molecules were tested:
# (§4) Two phase study was performed: (1) A prevention and (2) a treatment phase. 48 Mice were separated into nine groups of mice as described below. Histology at end of each study was performed looking for specific features of NASH (steatohepatitis, ballooning, fibrosis). The primary endpoint was plasma ALT measurement. Gene expression studies for fibrosis, inflammation were also performed.
# Drug (D2 or D4) was administered in drinking water at a concentration to deliver animals about 200 mg/kg/day of drug. Daily weight. Volume of fluid drunk/day was also measured.
# Prevention Phase. Group 1: Control mice on CDAHFD for 8 weeks. Blood drawn at 0, 4, and 8 weeks. Group 2: Mice on CDAHFD plus D2 at 200 mg/kg/day for 8 weeks. Blood drawn at 0, 4, and 8 weeks. Group 3: Mice on CDAHFD plus D4 at 200 mg/kg/day for 8 weeks. Blood drawn at 0, 4, and 8 weeks. Group 4: Control mice (n=4) continue on CDAHFD for 2 weeks. Blood at baseline and at 2 weeks. Liver histology at 2 weeks. Group 5: Mice (n=4) on CDAHFD for 2 weeks plus D2 at 200 mg/kg/day administered via daily gavage. Blood at 0 and 2 weeks and histology at 2 weeks. […]
# [6] = system: C57BL/6 male mice on CDAHFD diet; assay: In vivo NASH model, treatment phase (8 weeks CDAHFD, then 2 weeks daily gavage); conditions: for Fatty deposits / fat globules in liver, H&E staining: 200 mg/kg/day
# Protocol: Liver Inflammatory Cells. CD11b stains macrophages and microglia. CD11b staining of liver tissue was taken after 10 weeks of CDAHFD in three groups of mice. […] At 8 weeks, treatment group 2 (“C2”) mice started gavage feeding with D2-Cystamine at 200 mg/kg/day once daily gavage, and treatment group 3 (“C3”) mice received D4-Cystamine at 200 mg/kg/day by once daily gavage.
# as §3, §4
# Prevention Phase. Group 1: Control mice on CDAHFD for 8 weeks. Blood drawn at 0, 4, and 8 weeks. Group 2: Mice on CDAHFD plus D2 at 200 mg/kg/day for 8 weeks. Blood drawn at 0, 4, and 8 weeks. Group 3: Mice on CDAHFD plus D4 at 200 mg/kg/day for 8 weeks. Blood drawn at 0, 4, and 8 weeks. Group 4: Control mice (n=4) continue on CDAHFD for 2 weeks. Blood at baseline and at 2 weeks. Liver histology at 2 weeks. Group 5: Mice (n=4) on CDAHFD for 2 weeks plus D2 at 200 mg/kg/day administered via daily gavage. Blood at 0 and 2 weeks and histology at 2 weeks. Group 6: Mice (n=4) on CDAHFD for 2 weeks plus D4 at 200 mg/kg/day administered via daily gavage. Blood at 0 and 2 weeks and histology at 2 weeks.
# Treatment Study Results. Groups 4, 5 and 6 mice received 8 weeks of CDAHDF diet before beginning treatment with deuterated compounds of the disclosure. During the treatment phase the mice continued to receive CDAHDF diet. Four mice were set in each group: control (C1) not receiving any drug; treatment (C2) receiving 200 mg/kg of cystamine D2 by once daily gavage; and treatment (C3) receiving 200 mg/kg cystamine D4 by once daily gavage.
# [7] = system: steatosis; conditions: 400-1000 IU/day for 4-10 months, cited from earlier work
compound,measurement,setting,value
2-aminoethane-1-d-1-thiol hydrochloride [D-cysteamine],"Rate of hepatocyte elimination / stability, comparison in words",[1],slower rate than cysteamine bitartrate
"NCCS.O=C(O)C(O)C(O)C(=O)O (stereo not drawn) [Cysteamine Bitartrate, reference compound]","Hepatocyte elimination, % remaining",[1]; TIME 0 min,100%
same,"Hepatocyte elimination, % remaining",[1]; TIME 15 min,15.4%
same,"Hepatocyte elimination, % remaining",[1]; TIME 30 min,2.7%
same,"Hepatocyte elimination, % remaining",[1]; TIME 60 min,1.2%
"[2H]C(CN)SSC([2H])CN (stereo not drawn) [D2-Cystamine, 2,2′-disulfanediylbis(ethan-2-d-1-amine)dihydrochloride]","Rate of hepatocyte elimination / stability, comparison in words",[1],slower than non-deuterated cystamine
same,"Rate of intracellular cystine depletion, comparison in words",[2]; listed as D2-cystamine,slightly slower kinetics
same,"Rate of intracellular cystine depletion, comparison in words",[2]; listed as d2-Cystamine,slightly slower kinetics
same,"Rate of intracellular cystine depletion, comparison in words",[2]; listed as d2-cystamine,slower
same,"Cystine re-accumulation after washout, comparison in words","[3]; 100 uM for 3 h, then drug-free media up to 17 h, vs cystamine",slightly faster
same,NEM-cysteine level after 3 h incubation and washout,[4],rise and increase
same,NEM-cysteine level after 3 h incubation and washout,[4]; listed as D2,higher cysteine levels
same,ALT levels at 8 weeks versus control group,[5],statistically significant difference
same,ALT versus untreated control group,"[6]; 200 mg/kg once daily gavage, 2 weeks",significantly lower
same,"Hepatic fibrosis, Sirius Red staining of liver sections","[6]; 200 mg/kg once daily gavage, 2 weeks, listed as D2",significant reduction in the amount of positive liver staining
same,"Hepatic fibrosis, Sirius Red staining of liver sections","[6]; 200 mg/kg once daily gavage, 2 weeks, listed as cystamine D2",very significant reduction in hepatic fibrosis
same,Number of CD11b positive cells in liver tissue versus control group,"[6]; 200 mg/kg/day once daily gavage, 2 weeks",statistically significant reduction
same,"Fatty deposits / fat globules in liver, H&E staining",[6]; 2 weeks,reduction in fatty globules
same,"Fatty deposits / fat globules in liver, H&E staining","[6]; 2 weeks, listed as D2",reduced fatty deposits compared to control
same,"TIMP expression, qPCR, versus control","[6]; liver, 2 weeks of treatment",significant reduction
"Cl.[2H]C([2H])(S)CN [D2-cysteamine, 2-mercaptoethan-2,2-d2-1-aminium chloride]","Rate of hepatocyte elimination / stability, comparison in words",[1],slower rate than cysteamine bitartrate
"[2H]C([2H])(N)CSSCC([2H])([2H])N [D4n-cystamine, 2,2′-disulfanediylbis(ethan-1,1-d2-1-aminium) chloride]","Cystine reaccumulation after washout, D4n vs D8",[3],very similar
[2H]C([2H])(N)C([2H])([2H])SSC([2H])([2H])C([2H])([2H])N [D8-cystamine],"Cystine reaccumulation after washout, D4n vs D8",[3],very similar
[2H]C(CN)SSC([2H])CN (stereo not drawn) [drawing 24],"Hepatocyte elimination, % remaining",[1]; TIME 0 min,100%
same,"Hepatocyte elimination, % remaining",[1]; TIME 15 min,22.6%
same,"Hepatocyte elimination, % remaining",[1]; TIME 30 min,24.3%
same,"Hepatocyte elimination, % remaining",[1]; TIME 60 min,0%
[2H]C([2H])(CN)SSC([2H])([2H])CN [drawing 25],"Hepatocyte elimination, % remaining",[1]; TIME 0 min,100%
same,"Hepatocyte elimination, % remaining",[1]; TIME 15 min,131.4%
same,"Hepatocyte elimination, % remaining",[1]; TIME 30 min,35.9%
same,"Hepatocyte elimination, % remaining",[1]; TIME 60 min,14.5%
vitamin E,Mean AST level after treatment,[7]; decreased from 104±61 IU/L,33±11 IU/L
same,Mean ALT level after treatment,[7]; decreased from 175±106 IU/L,40±26 IU/L
